Experimental data taken from patent US20240199455A1, “REMOVAL OF TOXIC OXYANIONS BY CO-CRYSTALLIZATION WITH SULFATE” (UT-Battelle, LLC, priority 2022, published 2024).

Key:
[1] = Cocrystallization from simulated Bull Run leachate
Protocol: (§1) In a typical experiment, BIG chloride was added to wastewater containing sulfate, selenate, and/or selenite anions, and immediately upon addition, a white precipitate formed. The resulting suspensions were mixed for 24 h using a rotator set at 60 rpm inside an incubator set to 25 C. The samples were then removed and centrifuged for 10 min at 3000 rpm to separate the aqueous and solid phases. In the field, the suspended solids were filtered through a filter press. A 1 mL aliquot was then removed from each sample and passed through a 0.02 μm syringe filter to ensure any suspended solid was removed from the filtrate prior to diluting the samples in 2% HNO3 for ICP-MS analysis. To recover the BIG ligand, 2.1 equiv. of NaOH (or adjusted to a pH of 11) was added to a suspension of the BIG-oxyanion salts in a 15 mL polypropylene centrifuge tube. The suspension was mixed for 24 h at 60 rpm. The suspended BIG neutral solid was filtered from the supernatant solutions containing the oxyanions dissolved as soluble sodium salts. The BIG chloride salts were then regenerated by the addition of 0.1 M HCl to the neutral ligands. This process is depicted schematically in FIG. 5.
A more concentrated simulated wastewater solution based on Bull Run's leachate water that has leached from fly ash beds was also tested with BBIG and PyBIG. The concentrations of sulfate and selenate in the simulated leachate were 48.49±0.7 mM and 2.37±0.16 μM, respectively, with sulfate concentration being 20,460 times higher than that of selenate. In the case of BBIG, 1 equiv removed 96.3% and 95.4% sulfate and selenate, respectively, while 2 equiv removed sulfate and selenate near quantitatively at 99.90% and 99.94%, respectively, with a final Se concentration of 8.59±0.62 ppb (1 equiv) and 0.20±0.01 ppb (2 equiv). In the case of PyBIG, 89.2% and 85.5% sulfate and selenate, respectively, were removed with 1 equiv, and 99.98% and 99.99%, respectively with 2 equiv. The final Se concentrations after cocrystallization with PyBIG were 27.23±0.92 ppb (1 equiv) and 0.02±0.01 ppb (2 equiv), reaching the limit of detection. […] In fact, the large excess of sulfate present in the wastewaters appears to help remove trace amounts of selenate by cocrystallization with BBIG or PyBIG, down to sub-ppb levels of Se.

[2] = Crystallization of individual oxyanion (5 mM) with BIG chloride, ICP-MS of filtrate; details: for selenate removal efficiency: 5 mM selenate alone; for sulfate removal efficiency: 5 mM sulfate alone
Protocol: as §1
Crystallization studies with BBIG and individual sulfate, selenate, or selenite anions (5 mM) were performed, while the concentration of BIGs was increased from one to ten molar equivalents. […] On the other hand, only approximately half (53.0%, FIG. 2a) of the selenite was removed from the solution with 1 equivalent of BBIG, which can be attributed to its propensity to form HScO3^−, by deprotonating BBIG in the process. […] Once again, selenite was removed to a lesser extent (70.7%) with 1 equivalent of PyBIG (FIG. 2b).

[3] = Crystallization at constant 2.5 mM sulfate and decreasing selenate (2.5 mM to 2.5 μM); details: 2.5 mM sulfate
Protocol: as §1
Crystallization experiments were carried out keeping sulfate at a constant concentration and decreasing the selenate concentration while maintaining constant ionic strength to mimic wastewater conditions. These experiments were carried out at 1 and 2 molar equivalents of BBIG or PyBIG. […] At lower selenate concentrations of 250, 25, and 2.5 μM, there is no discernible preference between the oxyanions. […] At the lowest concentration of selenate, the amount remaining in solution after crystallization is below the limit of detection of 0.02 ppb Se. The same trend is observed for PyBIG, with near quantitative removal of both sulfate and selenate.

[4] = Cocrystallization from simulated Bull Run groundwater
Protocol: as §1
The efficacies of sulfate and selenate removal with BBIG and PyBIG ligands were next tested with simulated wastewater to determine if the EPA's 5 ppb discharge limit was achievable. The initial concentrations of sulfate and selenate in the simulated wastewater were based on typical values found in groundwaters monitored at the Bull Run steam plant of Tennessee Valley Authority (TVA). The simulated Bull Run groundwater contained an 8985-fold excess concentration of sulfate relative to selenate, with sulfate and selenate concentrations of 5.84±0.11 mM and 0.65±0.07 μM, respectively. Cocrystallization studies were performed with 1 and 2 mol equiv of BBIG or PyBIG. […] On the other hand, selenate removal was near quantitative with 2 equiv of BBIG (FIG. 4a).

[5] = Cocrystallization from equimolar sulfate/selenate mixture (2.5 mM each); details: for selenate removal / sulfate removal: 2.5 mM sulfate + 2.5 mM selenate; for ratio of sulfate to selenate % removal: equimolar mixture
Protocol: as §1
Concomitant crystallization of sulfate and selenate with either BBIG or PyBIG led to near quantitative removal of both oxyanions from equimolar aqueous mixtures. Cocrystallization experiments were carried out keeping the concentration of sulfate and selenate at near equimolar concentrations of 2.5 mM, while the BIG concentrations were increased gradually from 5 to 50 mM. […] At higher BBIG concentrations, the oxyanion removal remained near quantitative. Referring to the ratio of sulfate to selenate % removal, a ratio of 1.0 indicates there is no preference for sulfate over selenate. […] At relative ligand concentrations higher than 1 equivalent of BBIG, the ratio of removal efficiencies approaches 1, indicating no preference between the two oxyanions by crystallization under these conditions.
PyDIG also quantitatively removed sulfate and selenate at higher BIG concentrations. […] Increasing the PyBIG concentration achieved a ratio of approximately 1, indicating no discrimination between sulfate and selenate with excess PyBIG. With both BBIG and PyBIG, it appears the 2:1 BIG:oxyanions ratio is ideal for effectively removing SO4^2− and SeO4^2− anions from solution with minimal excess of the BIG ligands.

[6] = simulated leachate (48.49 mM sulfate, 2.37 μM selenate), 1 equiv BIG
[7] = simulated leachate, 2 equiv BIG
[8] = BIG at twice the oxyanion concentration (10 mM)
[9] = simulated groundwater (5.84 mM sulfate, 0.65 μM selenate), 1 equiv BIG
[10] = simulated groundwater, 2 equiv BIG
[11] = 1 molar equivalent BIG relative to total oxyanion
[12] = BIG increased to 2 equivalents (PyBIG: increased concentration, plateau after 2 equivalents)

For N=C(N)N/N=C/c1cccc(/C=N/NC(=N)N)n1 [PyBIG, pyridinedialdehydebis(iminoguanidinium)], the sulfate-to-selenate removal ratio ([1]; simulated groundwater and leachate) was “approximately one”, the selenate removal [1, 6] was 85.5% and the sulfate removal [1, 6] was 89.2%. For the same compound, the “final Se concentration” value ([1]; simulated leachate, 1 equiv BIG) was 27.23±0.92 ppb, the “final Se concentration” value [1, 7] was 0.02±0.01 ppb and the selenate removal [1, 7] was 99.99%. It also gave a sulfate removal [1, 7] of 99.98%, a selenate removal efficiency ([2]; 5 mM (1 equiv) BIG) of 93.9% and a selenate removal efficiency [2, 8] of 99.8%. It also gave a selenite removal efficiency ([2]; 5 mM selenite alone, 1 equivalent BIG) of 70.7%, a sulfate removal efficiency ([2]; 5 mM (1 equiv) BIG, 24 h, 25 C) of 95.0% and a sulfate removal efficiency [2, 8] of 99.9%. The selenate removal ([3]; 1 equiv BIG) was 75.6%, the sulfate removal ([3]; 1 equiv BIG) was 82.3% and the selenate removal ([3]; 2 equiv BIG) was > 99.7%. The sulfate removal ([3]; 2 equiv BIG) was > 99.7%, the selenate removal [4, 9] was 81.6% and the sulfate removal [4, 9] was 88.5%. The “final Se concentration” value ([4]; simulated groundwater, 1 equiv BIG) was 9.39±0.34 ppb, the “final Se concentration” value [4, 10] was 0.02±0.01 ppb and the selenate removal [4, 10] was 99.96%. It also gave a sulfate removal [4, 10] of 99.94%, a selenate removal [5, 11] of 75.6% and a sulfate removal [5, 11] of 82.3%. For the same compound, the selenate removal [5, 12] was 99.7%, the sulfate removal [5, 12] was 97.8% and the “ratio of sulfate to selenate % removal” value ([5]; 1 equivalent BIG, 1.0 = no preference) was 0.84. For the same compound, the “ratio of sulfate to selenate % removal” value ([5]; more than 1 equivalent (excess) BIG) was “approximately 1”.
